Data published in publication PMC2849849 (Neuropharmacology, 2010).
Values joined by “and” are separate entries in the source; they are usually repeats but may differ in a detail not shown here. Identical values can stand only once. “Also recorded” adds a separate entry of the source. Counter-ions that a name gives are not always drawn. Like-named read-outs stand apart in the source and are kept apart here.

How the values were obtained:
[1] = system: α4L9'A knock-in mice; assay: Hypothermia in α4L9'A knock-in mice; format: in vivo, mouse; settings: for Physiological effect α4L9'Aβ2*: ip
[2] = biological target: α3β4*-nAChR (Mus musculus, UniProt Q8R493+Q8R4G9); assay: [3H]-ACh release from IPN synaptosomes; format: biochemical; settings: for Functional character at α3β4*: [3H]-ACh release from IPN synaptosomes
[3] = system: α6L9'S transgenic mice; assay: Locomotor activity in α6L9'S transgenic mice; format: in vivo, mouse; settings: for Physiological effect α6L9'Sβ2*: locomotor, ip, dose in parentheses mg/kg
[4] = biological target: T1, α4β2*-nAChR (Mus musculus, UniProt O70174+Q9ERK7); assay: α-CtxMII-resistant [3H]-dopamine release from striatal synaptosomes; format: biochemical
[5] = biological target: T2, α6β2*-nAChR (Mus musculus, UniProt Q9ERK7+Q9R0W9); assay: α-CtxMII-sensitive [3H]-dopamine release from striatal synaptosomes; format: biochemical
[6] = biological target: hα7-nAChR (Homo sapiens, UniProt P36544); assay: cell-based; format: cell-based; settings: for Emax: GH4-C1, read-out: Efficacy α7; for EC50: read-out: EC50 α7
[7] = biological target: α7-nAChR (Mus musculus, UniProt P49582); assay: biochemical; format: binding
[8] = system: α6L9'S transgenic mice; settings: ref Drenan et al, 2008, cited from earlier work; for Physiological effect α6L9'Sβ2*: locomotor, ip, dose in parentheses mg/kg
[9] = system: α6L9'S mice; settings: 0.1 mg/kg; unpublished data
[10] = system: α4L9'A knock-in mice; settings: ref Tapper et al, 2007, cited from earlier work; for Physiological effect α4L9'Aβ2*: ip, dose in parentheses mg/kg
[11] = biological target: T2, α6β2*-nAChR; settings: ref Salminen et al, 2004; cited from earlier work
[12] = biological target: T1, α4β2*-nAChR; settings: ref Salminen et al, 2004; cited from earlier work
[13] = dose in parentheses mg/kg, block = block of low dose nicotine
[14] = Ki α4β2* (1st number, [3H]DA release assay, marked #)
[15] = EC50 α3β4*, activation, [3H]ACh release
[16] = EC50 α4β2* (1st number, [3H]DA release assay), activation, curve fit
[17] = EC50 α6β2*, activation, α-CtxMII-sensitive DA release
[18] = read-out: Ki α4β2* (1st number, [3H]DA release assay, marked #)

T1 sequence (O70174 31-629): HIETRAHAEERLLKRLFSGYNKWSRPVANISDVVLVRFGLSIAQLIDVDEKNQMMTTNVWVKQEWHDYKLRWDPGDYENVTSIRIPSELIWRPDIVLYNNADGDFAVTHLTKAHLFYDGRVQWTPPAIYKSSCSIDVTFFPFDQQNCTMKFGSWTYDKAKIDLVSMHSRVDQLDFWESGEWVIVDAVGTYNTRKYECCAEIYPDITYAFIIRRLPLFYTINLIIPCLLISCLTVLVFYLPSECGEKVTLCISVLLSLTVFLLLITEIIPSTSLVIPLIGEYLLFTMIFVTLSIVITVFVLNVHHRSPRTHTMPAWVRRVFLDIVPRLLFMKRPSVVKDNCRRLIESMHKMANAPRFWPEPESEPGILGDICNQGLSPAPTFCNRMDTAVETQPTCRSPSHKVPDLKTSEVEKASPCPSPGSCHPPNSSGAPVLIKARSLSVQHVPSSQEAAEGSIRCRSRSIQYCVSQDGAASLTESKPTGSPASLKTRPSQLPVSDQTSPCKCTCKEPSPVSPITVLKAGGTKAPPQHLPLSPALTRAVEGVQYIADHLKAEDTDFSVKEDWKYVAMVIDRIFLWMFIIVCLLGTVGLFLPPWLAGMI
T1 sequence (Q9ERK7 26-501): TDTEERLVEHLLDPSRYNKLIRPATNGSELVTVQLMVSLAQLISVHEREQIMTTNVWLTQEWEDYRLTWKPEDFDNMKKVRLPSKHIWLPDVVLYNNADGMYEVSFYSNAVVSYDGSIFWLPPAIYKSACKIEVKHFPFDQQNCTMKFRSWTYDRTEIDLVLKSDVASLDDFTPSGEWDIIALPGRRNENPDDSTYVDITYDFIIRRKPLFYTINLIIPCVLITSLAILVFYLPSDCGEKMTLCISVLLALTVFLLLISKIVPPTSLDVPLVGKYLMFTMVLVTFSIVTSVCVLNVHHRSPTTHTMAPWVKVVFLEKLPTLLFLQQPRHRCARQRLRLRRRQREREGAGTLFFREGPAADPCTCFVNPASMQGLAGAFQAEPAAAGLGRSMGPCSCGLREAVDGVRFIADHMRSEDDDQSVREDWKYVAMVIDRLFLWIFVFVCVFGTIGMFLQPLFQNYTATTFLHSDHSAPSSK
T2 sequence (Q9R0W9 31-494): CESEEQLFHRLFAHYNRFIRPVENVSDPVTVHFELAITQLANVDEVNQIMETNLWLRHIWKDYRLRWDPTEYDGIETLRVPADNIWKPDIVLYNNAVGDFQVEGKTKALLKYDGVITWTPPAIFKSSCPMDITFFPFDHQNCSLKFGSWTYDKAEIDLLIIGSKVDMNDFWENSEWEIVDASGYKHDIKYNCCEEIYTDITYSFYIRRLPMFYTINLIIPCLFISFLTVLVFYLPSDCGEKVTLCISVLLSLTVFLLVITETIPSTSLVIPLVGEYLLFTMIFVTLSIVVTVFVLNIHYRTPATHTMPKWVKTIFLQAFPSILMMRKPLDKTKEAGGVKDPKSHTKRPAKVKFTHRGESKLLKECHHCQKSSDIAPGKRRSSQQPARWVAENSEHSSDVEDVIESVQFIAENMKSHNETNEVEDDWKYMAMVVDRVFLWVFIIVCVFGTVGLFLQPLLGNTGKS
T2 sequence (Q9ERK7 26-501): as the sequence (Q9ERK7 26-501) above
T2 sequence (Q8BMN3 31-464 partner): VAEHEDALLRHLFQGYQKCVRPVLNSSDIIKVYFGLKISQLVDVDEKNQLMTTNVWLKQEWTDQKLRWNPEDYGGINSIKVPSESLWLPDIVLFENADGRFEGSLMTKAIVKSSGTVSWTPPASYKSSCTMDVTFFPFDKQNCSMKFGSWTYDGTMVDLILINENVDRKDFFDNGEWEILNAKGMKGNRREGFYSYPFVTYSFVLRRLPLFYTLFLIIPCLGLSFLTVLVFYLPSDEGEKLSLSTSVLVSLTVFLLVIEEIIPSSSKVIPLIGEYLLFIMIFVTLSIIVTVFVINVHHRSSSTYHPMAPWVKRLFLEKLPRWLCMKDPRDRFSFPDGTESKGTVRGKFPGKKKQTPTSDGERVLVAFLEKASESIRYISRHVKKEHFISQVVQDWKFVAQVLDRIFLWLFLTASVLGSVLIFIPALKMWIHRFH
α3β4*-nAChR, sequence (Q8R4G9 26-499): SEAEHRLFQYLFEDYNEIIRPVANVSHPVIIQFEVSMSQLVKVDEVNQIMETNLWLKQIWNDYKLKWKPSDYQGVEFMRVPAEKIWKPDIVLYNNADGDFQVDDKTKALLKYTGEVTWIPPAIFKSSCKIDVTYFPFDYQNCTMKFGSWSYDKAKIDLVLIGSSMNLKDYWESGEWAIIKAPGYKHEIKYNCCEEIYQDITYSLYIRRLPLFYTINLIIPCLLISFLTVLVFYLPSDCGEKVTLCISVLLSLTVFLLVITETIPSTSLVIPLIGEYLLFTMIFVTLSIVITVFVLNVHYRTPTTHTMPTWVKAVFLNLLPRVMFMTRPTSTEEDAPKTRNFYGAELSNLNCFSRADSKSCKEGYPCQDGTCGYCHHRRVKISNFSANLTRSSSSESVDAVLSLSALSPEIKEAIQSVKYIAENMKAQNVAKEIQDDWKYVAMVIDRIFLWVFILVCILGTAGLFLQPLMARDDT
α3β4*-nAChR, sequence (Q8R493 21-495): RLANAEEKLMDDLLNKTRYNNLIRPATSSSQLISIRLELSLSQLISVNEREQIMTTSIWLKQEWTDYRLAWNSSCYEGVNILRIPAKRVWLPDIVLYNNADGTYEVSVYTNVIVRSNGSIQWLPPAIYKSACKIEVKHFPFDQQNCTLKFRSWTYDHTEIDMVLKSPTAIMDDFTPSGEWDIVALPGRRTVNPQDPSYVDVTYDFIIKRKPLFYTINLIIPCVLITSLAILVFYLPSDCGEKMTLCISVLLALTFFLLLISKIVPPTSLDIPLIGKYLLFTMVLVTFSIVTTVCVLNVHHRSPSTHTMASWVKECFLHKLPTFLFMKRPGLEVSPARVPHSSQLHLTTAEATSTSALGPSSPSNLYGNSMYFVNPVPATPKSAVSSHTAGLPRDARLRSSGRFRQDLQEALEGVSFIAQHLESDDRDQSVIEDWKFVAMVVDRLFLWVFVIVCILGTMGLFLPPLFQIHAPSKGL
α7-nAChR, sequence (P49582 23-502): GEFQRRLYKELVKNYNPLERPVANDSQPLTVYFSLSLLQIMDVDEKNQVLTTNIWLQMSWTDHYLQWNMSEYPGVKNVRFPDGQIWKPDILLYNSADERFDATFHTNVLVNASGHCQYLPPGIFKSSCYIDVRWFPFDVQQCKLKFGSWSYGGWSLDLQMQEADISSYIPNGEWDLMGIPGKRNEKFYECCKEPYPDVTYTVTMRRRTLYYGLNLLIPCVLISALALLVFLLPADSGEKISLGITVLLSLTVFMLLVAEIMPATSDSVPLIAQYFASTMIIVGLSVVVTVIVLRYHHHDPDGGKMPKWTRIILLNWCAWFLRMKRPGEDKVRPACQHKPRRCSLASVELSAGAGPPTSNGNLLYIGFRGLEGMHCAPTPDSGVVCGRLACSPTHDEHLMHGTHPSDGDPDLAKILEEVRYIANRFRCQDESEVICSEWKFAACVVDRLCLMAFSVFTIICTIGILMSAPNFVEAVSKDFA
hα7-nAChR, sequence (P36544 23-502): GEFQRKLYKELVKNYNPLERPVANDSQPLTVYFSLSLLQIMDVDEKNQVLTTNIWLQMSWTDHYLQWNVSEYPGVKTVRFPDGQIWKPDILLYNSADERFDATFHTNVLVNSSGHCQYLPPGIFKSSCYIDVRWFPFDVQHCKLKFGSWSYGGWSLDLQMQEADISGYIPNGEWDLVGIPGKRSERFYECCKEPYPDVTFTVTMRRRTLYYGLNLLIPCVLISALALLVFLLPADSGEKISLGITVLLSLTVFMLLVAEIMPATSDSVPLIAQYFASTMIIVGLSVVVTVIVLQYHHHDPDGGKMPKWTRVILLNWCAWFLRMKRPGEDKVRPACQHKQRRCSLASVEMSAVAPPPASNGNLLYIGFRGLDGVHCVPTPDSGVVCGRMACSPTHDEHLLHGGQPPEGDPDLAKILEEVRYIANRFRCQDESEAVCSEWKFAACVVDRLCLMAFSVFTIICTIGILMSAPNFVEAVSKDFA

## c1cncc(CC2CC3CCN2CC3)c1 (centres unmarked) [Compound 5, 2-(pyridin-3-ylmethyl)quinuclidine]
[1]; mouse, in vivo
  Physiological effect α4L9'Aβ2*: did not have intrinsic activity, nor did they block the effect of nicotine; also recorded: no effect
[2]
  Functional character at α3β4*: full or nearly full agonists

## c1cnc2cc3c(cc2n1)[C@@H]1CNC[C@H]3C1 [Varenicline, reference compound]
[1]; [13]
  Physiological effect α4L9'Aβ2*: hypothermia (0.001)
[3]
  Physiological effect α6L9'Sβ2*: activation (0.1)
[3]; listed as varenicline
  Physiological effect α6L9'Sβ2*: locomotor hyperactivity
[4]
  EC50: 50 ± 12 nM
[5]
  EC50: 77 ± 169 nM
[6]
  Emax: 78 ± 24%
[2]
  EC50: 12000 ± 300 nM
[7]
  Ki: 42 ± 5 nM

## c1cncc(C2CCC3CCN2CC3)c1 (centres unmarked) [Compound 3, 2-(pyridine-3-yl)-1-azabicyclo[3.2.2]nonane]
[1]; mouse, in vivo
  Physiological effect α4L9'Aβ2*: blocked the effects of 0.1 mg/kg nicotine; also recorded: block (0.002)
[4]; [14]
  Ki: 14 nM
[5]
  Ki: 52 ± 22 nM
[6]
  Functional character at α7: full agonists
  Emax: 106%
[2]; [15]
  EC50: 2200 ± 300 nM
[2]
  Functional character at α3β4*: full or nearly full agonists
[7]
  Ki: 2.2 ± 0.5 nM

## CNCC/C=C/c1cccnc1 [Compound 8, (E)-N-methyl-4-(3-pyridinyl)-3-butene-1-amine]
[1]; mouse, in vivo
  Physiological effect α4L9'Aβ2*: elicited responses; also recorded: hypothermia (0.2)
[4]
  EC50: 14800 ± 10100 nM
[5]; α-CtxMII-sensitive DA release
  Functional character at α6β2*: no measurable activity
[8]
  Physiological effect α6L9'Sβ2*: elicited responses; also recorded: elicit a response; also recorded: activation (1.0) ^2
[6]
  Emax: 17 ± 7%
[2]
  Functional character at α3β4*: partial agonists
[7]
  Ki: 3070 ± 800 nM

## CN1[C@@H]2CC[C@H]1C=C(c1cncc(Br)c1)C2 [Compound 10, (1R,5S)-3-(5-bromopyridin-3-yl)-8-methyl-8-azabicyclo[3.2.1]oct-3-ene]
[1]; mouse, in vivo
  Physiological effect α4L9'Aβ2*: elicited responses; also recorded: hypothermia (0.1)
[3]
  Physiological effect α6L9'Sβ2*: elicited responses; also recorded: locomotor activation; also recorded: activation (0.1)
[4]
  Efficacy as % of Compound 8, α-CtxMII-resistant DA release: 25%
  Increase in potency relative to Compound 8, α-CtxMII-resistant DA release: 83 fold
[4]; [16]
  EC50: 178 ± 94 nM
[4]; EC50 α-CtxMII-resistant (α4β2*) [3H]-DA release
  EC50: 180 nM
[5]; [17]
  EC50: 117 ± 69 nM
[5]; EC50 α-CtxMII-sensitive (α6β2*) [3H]-DA release
  EC50: 120 nM
[5]; α-CtxMII-sensitive DA release
  Functional character at α6β2*: partial agonist
[6]
  Emax: 55 ± 9%
[2]; [15]
  EC50: 7200 ± 600 nM
[2]
  Functional character at α3β4*: partial agonists
[7]
  Ki: 128 ± 36 nM

## CN1CCC[C@H]1c1cccnc1 [Nicotine, (-)-nicotine tartrate]
[9]
  Temperature decrease in α6L9'S mice: < 1 °C
[8]; 0.15 mg/kg ip
  Locomotor activation, % of saline activity in α6L9'S mice: ~350%
[8]
  Physiological effect α6L9'Sβ2*: activation (0.1) ^2
[8]; listed as nicotine
  Physiological effect α6L9'Sβ2*: locomotor hyperactivity
[10]; 0.03 mg/kg
  Temperature decrease in α4L9'A mice: 3 °C
[10]
  Physiological effect α4L9'Aβ2*: hypothermia (0.01) ^1
[10]; listed as nicotine
  Physiological effect α4L9'Aβ2*: hypothermia

## O=c1cccc2n1C[C@@H]1CNC[C@H]2C1 [cytisine]
[11]
  Efficacy at α6β2*: 71%
[12]
  Efficacy at α4β2*-nAChRs: 37%

## N#Cc1ccc(Oc2cncc(C3CC4CCN3CC4)c2)cc1 (centres unmarked) [Compound 7, 4-(5-(quinuclidin-2-yl)pyridin-3-yloxy)benzonitrile]
[1]; mouse, in vivo
  Physiological effect α4L9'Aβ2*: blocked the effects of 0.1 mg/kg nicotine; also recorded: block (0.01)
[3]
  Physiological effect α6L9'Sβ2*: block (0.1)
[4]; [14]
  Ki: 66 nM
[5]
  Antagonist potency at α6β2* relative to Compound 6 (times more potent): 40 times
  Ki: 48 ± 3 nM
[2]
  Ki: 7000 ± 2000 nM
  Functional character at α3β4*: full or nearly full agonists
[7]
  Ki: 23.4 ± 7.9 nM

## c1cncc(C2CC3CCN2CC3)c1 (racemic) [Compound 1, (±)-2-(-3-pyridinyl)-1-azabicyclo[2.2.2]octane]
[1]; 0.03 mg/kg i.p.
  Temperature drop in α4L9'A mice: ~8 °
[1]; mouse, in vivo
  Physiological effect α4L9'Aβ2*: hypothermia (0.03)
[3]; 0.01 mg/kg i.p.
  Increase in activity over saline in α6L9'S mice: ~290%
[8]
  Physiological effect α6L9'Sβ2*: locomotor activation; also recorded: activation (0.01) ^2

## c1ccc(-c2cncc(C3CC4CCN3CC4)c2)cc1 [Compound 6, (4S)-2-(5-phenylpyridin-3-yl)quinuclidine]
[4]
  Efficacy α4β2* (first number, [3H]DA release): -94 ± 2%
[4]; [18]
  Ki: 230 nM
[5]
  Efficacy α6β2*: -100 ± 19%
[5]; read-out: Ki α6β2* (marked #)
  Ki: 1780 ± 1740 nM
[6]
  Efficacy α7: 18 ± 6%
[6]; peak current, GH4C1 cells
  EC50: 29000 ± 5400 nM
[2]
  Efficacy α3β4*: -100 ± 7%
  Functional character at α3β4*: full antagonists
[2]; read-out: Ki α3β4* (marked #)
  Ki: 660 ± 170 nM
[7]
  Decrease in α7 binding affinity relative to Compound 1: approximately 50 fold

## c1cncc(C2C3CC4CC(C3)CN2C4)c1 (centres unmarked) [Compound 4, 1-aza-2-(3-pyridinyl)-tricyclo[3.3.1.13,7]decane]
[1]; mouse, in vivo
  Physiological effect α4L9'Aβ2*: blocked the effects of 0.1 mg/kg nicotine; also recorded: block (0.01)
[4]; [14]
  Ki: 78 nM
[5]
  Ki: 570 ± 299 nM
[2]; EC50 α3β4* [3H]-ACh release
  EC50: 8500 nM
[2]; [15]
  EC50: 34000 ± 8000 nM
[2]
  Functional character at α3β4*: full or nearly full agonists
[7]
  Ki: 64.5 ± 5.5 nM

## c1cncc(C2C3CCN2CC3)c1 (centres unmarked) [Compound 2, 7-(pyridin-3-yl)-1-azabicyclo[2.2.1]heptane]
[1]; [13]
  Physiological effect α4L9'Aβ2*: elicited responses; also recorded: hypothermia (0.03)
[3]
  Physiological effect α6L9'Sβ2*: elicited responses; also recorded: locomotor activation; also recorded: activation (0.1)
[4]; [16]
  EC50: 1040 ± 280 nM
[5]; [17]
  EC50: 50 ± 23 nM
[5]; α-CtxMII-sensitive DA release
  Functional character at α6β2*: full agonist
[6]
  Functional character at α7: full agonist
  Emax: 108%
[2]
  EC50: 4200 ± 500 nM
  Functional character at α3β4*: full or nearly full agonists
[7]
  Ki: 32.9 ± 1.3 nM

## CNC(C)C/C=C/c1cncc(C#Cc2ccccc2)c1 (centres unmarked) [Compound 9, (E)-N-methyl-5-(5-(phenylethynyl)pyridin-3-yl)pent-4-en-2-amine]
[1]; mouse, in vivo
  Physiological effect α4L9'Aβ2*: did not have intrinsic activity, nor did they block the effect of nicotine; also recorded: no effect
[4]; [14]
  Ki: 3900 nM
[5]
  Inhibition at α6β2* (partial antagonism): ~50%
  Ki: 4100 ± 83 nM
[6]
  Efficacy α7: naa
[6]; peak current, GH4C1 cells
  EC50 α7: naa
[2]
  Ki: 14000 ± 300 nM
  Functional character at α3β4*: full antagonists
[7]
  Ki: 30700 ± 4100 nM

## 2-((5-chloropyridin-3-yloxy)methyl)quinuclidine [Compound 11]
[1]; mouse, in vivo
  Physiological effect α4L9'Aβ2*: did not have intrinsic activity, nor did they block the effect of nicotine; also recorded: inconclusive
[4]
  Efficacy α4β2* (first number, [3H]DA release): -100 ± 9%
  Reduction of antagonist potency at α4β2* relative to Compound 5: 16 fold
[4]; [18]
  Ki: 490 nM
[5]
  Efficacy α6β2*: -100 ± 18%
  Reduction of antagonist potency at α6β2* relative to Compound 5: 2 fold
[5]; read-out: Ki α6β2* (marked #)
  Ki: 910 ± 656 nM
[6]
  Efficacy α7: 31% and 31 ± 12%
[6]; peak current, GH4C1 cells
  EC50: 4260 ± 730 nM
[2]
  Efficacy α3β4*: 8% and 8 ± 2%
  Functional character at α3β4*: partial agonists
[2]; read-out: EC50 α3β4*, activation, [3H]ACh release
  EC50: 7000 ± 1000 nM
